The values below come from article PMC2801429 (Journal of Alzheimer's disease : JAD, 2009).

Each structure is given as a SMILES string. “Also recorded” adds a separate entry of the source. Marks after values point to notes of the source that are not given here.

Series [1] is described as follows: Plasma pharmacokinetics of GSPE phenolic constituents after intragastric gavage. The series is classed as in vivo, Sprague Dawley rats. The conditions noted are these: for Increase of total (free plus methylated) C AUC0-8h: rats; for Detection in rat plasma: acute oral administration of GSPE; for AUC(0-8h) / Cmax / Tmax: rat plasma, mean ± SEM.
Series [2] in a line: Brain deposition of GSPE phenolic constituents. In kind it is in vivo, Sprague Dawley rats. As to conditions: for Detection in brain tissue: rats; for Concentration in brain tissue: rats administered GSPE for 10 days (dose escalation, last dose 150 mg/kg BW), perfused brain, mean ± SEM.
The conditions of series [3]: acute and single dose studies; cited from earlier work.
For series [4] the following is noted: humans; four week multiple dose administration; cited from earlier work.
[5] abbreviates: single intragastric gavage 50 mg GSE/kg BW.
[6] abbreviates: single intragastric gavage 100 mg GSE/kg BW.
[7] abbreviates: single intragastric gavage 150 mg GSE/kg BW.
[8] abbreviates: 10 day repeated GSPE pretreatment prior to pharmacokinetic dose.
Setting [9] is: single acute GSPE dose (50, 100 or 150 mg/kg BW).

For `Oc1cc(O)c2c(c1)OC(c1ccc(O)c(O)c1)C(O)C2` (single isomer, unassigned; (+)) [C, (+)-catechin], the entries for the “Increase of total (free plus methylated) C AUC0-8h” value in series [1] (50 to 100 mg/kg BW dose) and in series [1] (100 to 150 mg/kg BW dose) were 78% and 106%, respectively. For the same molecule, the “Detection in rat plasma” value in series [1] is on record as “detected”. Besides, the “AUC(0-8h)” value in series [1] (setting [5]) was 398.5 ± 80.5 ^a ng/mL*h; in series [1] (setting [6]), 606.1 ± 64.6 ^a ng/mL*h; in series [1] (setting [7]), 1168.2 ± 143.6 ^b ng/mL*h. The Cmax was 207.5 ± 34.8 ^a ng/mL in series [1] (setting [5]), 289.9 ± 37.2 ^a ng/mL in series [1] (setting [6]) and 442.4 ± 49.1 ^b ng/mL in series [1] (setting [7]). The Tmax is listed as 1.7 ± 0.7 h in series [1] (setting [5]), 1.8 ± 0.2 h in series [1] (setting [6]) and 1.1 ± 0.2 h in series [1] (setting [7]). The figures for the “Detection in brain tissue” value in series [2] (setting [8]) and in series [2] (setting [9]) were “detectable levels” and “not detectable”, respectively. Also, the “Concentration in brain tissue” value in series [2] is 576.7 ± 227.7 pg/g. The Bioavailability in series [3] is recorded as < 2 % of oral dose.
For `COc1cc([C@H]2Oc3cc(O)cc(O)c3C[C@@H]2O)ccc1O` [3′-OMeC, 3′-O-methylcatechin], in series [1] (setting [5]), the “AUC(0-8h)” value is listed as 44.1 ± 4.9 ^a ng/mL*h, the Cmax is listed as 22.7 ± 3.5 ^a ng/mL and the Tmax is 1.0 ± 0.0 h. In series [1] (setting [6]), the “AUC(0-8h)” value was 184.8 ± 45.3 ^a ng/mL*h, the Cmax is 75.5 ± 14.0 ^b ng/mL and the time of peak concentration (Tmax) came out at 1.4 ± 0.2 h. In series [1] (setting [7]), the “AUC(0-8h)” value is on record as 465.1 ± 45.1 ^b ng/mL*h, the Cmax is listed as 129.3 ± 13.2 ^c ng/mL and the Tmax is on record as 1.3 ± 0.2 h. The “Detection in brain tissue” value in series [2] (setting [8]) was “Trace but not quantifiable levels”.
With `COc1cc([C@H]2Oc3cc(O)cc(O)c3C[C@H]2O)ccc1O` [3′-OMeEC, 3′-O-methylepicatechin], in series [1] (setting [5]), the “AUC(0-8h)” value is reported as 60.5 ± 4.1 ^a ng/mL*h, the Cmax is listed as 36.8 ± 5.8 ^a ng/mL and the time to peak (Tmax) stood at 1.0 ± 0.0 h. For the same molecule, in series [1] (setting [6]), the “AUC(0-8h)” value is 266.6 ± 61.4 ^b ng/mL*h, the Cmax is listed as 105.9 ± 22.0 ^a ng/mL and the Tmax is reported as 1.5 ± 0.2 h. For the same molecule, in series [1] (setting [7]), the “AUC(0-8h)” value is given as 639.5 ± 67.0 ^c ng/mL*h, the Cmax is on record as 167.7 ± 19.6 ^a ng/mL and the time of peak concentration (Tmax) worked out at 1.3 ± 0.2 h. Further, the “Detection in brain tissue” value in series [2] (setting [8]) was “Trace but not quantifiable levels”.
For `Oc1cc(O)c2c(c1)O[C@H](c1ccc(O)c(O)c1)[C@H](O)C2` [EC, (−)-epicatechin], in series [1], the “Detection in rat plasma” value is reported as “detected”. Further, the results for the “Detection in brain tissue” value in series [2] (setting [8]) and in series [2] (setting [9]) were “detectable levels” and “not detectable”, respectively. In addition, the “Concentration in brain tissue” value in series [2] came out at 290.7 ± 45.9 pg/g. Also, the Bioavailability in series [3] is on record as < 2 % of oral dose.
With `O=C(O[C@@H]1Cc2c(O)cc(O)cc2O[C@@H]1c1cc(O)c(O)c(O)c1)c1cc(O)c(O)c(O)c1` [EGCG, epigallocatechin-gallate], the “Improvement of bioavailability by multiple dosing” value in series [4] is given as above 60%.
For the molecule `O=C(O)c1cc(O)c(O)c(O)c1` [GA, Gallic acid], the “Detection in brain tissue” value in series [2] (setting [8]) is given as “detectable levels; also recorded: trace levels”; in series [2] (setting [9]) it was “No detectable amounts”. Besides, the Bioavailability in series [3] is given as < 2 % of oral dose.
